Measurements: patent publication US9173912B2 (priority 2008, dated 2015)
In brackets after ≈: the same amount, converted by molar mass.

Tests used:
[1] = Inactivation of superoxide anions after stimulation with PMA (colour reduction); conditions: test concentration 200 μg/ml, versus untreated control (0% inactivation)
Description: The concentration of oxygen radicals (superoxide anions) is regarded as measure for oxidative stress in organic tissues. By means of quantifying superoxide anions with a color reduction after stimulating with phorbol-12-myristat-13-acetate (PMA), the following antioxidative capacities have been recorded (test concentration 200 μg/ml) in comparison to an untreated control (0% inactivation): […]

[2] = tested on: herpes simplex viruses type 1 (HSV-1); assay: Virucidal activity: viral suspension exposed to extract, then infectiousness in cells measured; format: cell-based; conditions: Herpes Simplex Virus I
Description: (§1) In addition, a quite universal usability of the invented extract on viral diseases could be shown with herpes simplex viruses type 1 (HSV-1):
In order to define the virucidal activity, a viral suspension is exposed to the extract and then the infectiousness of viruses in the cells is measured. Ethanol is used for positive controls.

[3] = tested on: herpes simplex viruses type 1 (HSV-1); assay: Virustatic activity: supernatant of infected human cells after inoculation with extract; format: cell-based
Source text: as §1
The definition of virustatic activity is then identified via the supernatant of infected human cells after inoculation with extract. Aciclovir is the accepted positive control.

[4] = target: neuraminidase of Clostridium perfringens; conditions: read-out: IC 50 neuraminidase, Zanamivir column

## O=C1O[C@H]([C@@H](O)CO)C(O)=C1O [Vitamin C]
[1]
  Antioxidative capacity, inactivation of superoxide anions: 96.6%

## Nc1nc2c(ncn2COCCO)c(=O)[nH]1 [Aciclovir]
[2]
  IC 50 Virucidal: ineffective
[3]; Human alphaherpesvirus 1, Herpes Simplex Virus I, read-out: IC 50 Virustatic
  IC50: 0.0002 mg/mL (≈ 0.000888 mM)

## CC(=O)N[C@H]1[C@H]([C@H](O)[C@H](O)CO)OC(C(=O)O)=C[C@@H]1N=C(N)N [Zanamivir]
[4]
  IC50: > 200 µM

## CCO [Ethanol]
[2]; Human alphaherpesvirus 1, read-out: IC 50 Virucidal
  IC50: 80 mg/mL (≈ 1740 mM)
[3]; Herpes Simplex Virus I
  IC 50 Virustatic: ineffective
